These results are taken from patent US20240246967A1, “AXL COMPOUNDS” (ARCUS BIOSCIENCES, INC., priority 2021, published 2024).

The assay deals with T1, human TYRO3 (Homo sapiens, UniProt Q06418).
T1 construct: purchased Invitrogen
T1 sequence (Q06418 41-890): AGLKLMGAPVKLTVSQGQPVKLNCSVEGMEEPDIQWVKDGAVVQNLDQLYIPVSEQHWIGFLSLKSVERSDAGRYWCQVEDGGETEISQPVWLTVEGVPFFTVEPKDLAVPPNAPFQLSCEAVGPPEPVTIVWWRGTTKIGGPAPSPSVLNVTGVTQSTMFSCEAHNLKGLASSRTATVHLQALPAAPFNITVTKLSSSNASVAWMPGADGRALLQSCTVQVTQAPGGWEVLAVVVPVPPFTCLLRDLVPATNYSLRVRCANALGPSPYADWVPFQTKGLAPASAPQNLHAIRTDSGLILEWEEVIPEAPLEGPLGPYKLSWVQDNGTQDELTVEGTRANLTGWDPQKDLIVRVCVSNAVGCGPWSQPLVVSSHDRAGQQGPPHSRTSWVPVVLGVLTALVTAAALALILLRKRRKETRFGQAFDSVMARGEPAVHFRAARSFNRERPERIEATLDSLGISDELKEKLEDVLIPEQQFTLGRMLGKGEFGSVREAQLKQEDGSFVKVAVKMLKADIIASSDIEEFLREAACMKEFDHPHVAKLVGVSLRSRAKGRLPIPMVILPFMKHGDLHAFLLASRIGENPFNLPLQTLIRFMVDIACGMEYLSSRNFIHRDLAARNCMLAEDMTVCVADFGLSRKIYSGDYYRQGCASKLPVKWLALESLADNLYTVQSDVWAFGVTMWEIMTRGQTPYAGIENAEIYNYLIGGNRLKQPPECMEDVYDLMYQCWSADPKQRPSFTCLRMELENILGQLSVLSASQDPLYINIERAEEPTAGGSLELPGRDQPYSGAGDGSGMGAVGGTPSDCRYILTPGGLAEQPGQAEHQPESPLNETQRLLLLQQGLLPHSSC
In words: HTRF KinEASE-TK biochemical potency assay, TYRO3. To be noted: 1 nM TYRO3, 700 μM ATP, 800 nM TK Substrate-biotin. The procedure:
Purified recombinant human AXL, TYRO3 and MER proteins were purchased from Invitrogen™. 10 nM AXL, 2 nM TYRO3 or MER were incubated with varying concentrations of compounds in 50 mM HEPES, pH 7.4, 10 mM MgCl2, 0.01% BSA, 1 mM DTT and 2% DMSO in a total volume of 20 μl in a 384-well microplate (Corning™ #3640) at RT for 1 h. The AXL, TYRO3 and MER enzymatic reaction was initiated by transferring 10 μl of enzyme and compound mixture into 10 μl of 1.6 μM TK Substrate-biotin (HTRF® KinEASE-TK kit, Cisbio) and 1400 μM ATP pre-incubated in 50 mM HEPES, pH 7.4, 10 mM MgCl2, 0.01% BSA, 1 mM DTT in a 384-well microplate (Corning™ #3640) at RT, giving the final reaction conditions: 5 nM AXL, 1 nM TYRO3 or MER, 800 nM TK Substrate-biotin and 700 μM ATP in 50 mM HEPES, pH 7.4, 10 mM MgCl2, 0.01% BSA, 1 mM DTT and 1% DMSO with varying concentrations of compounds. Following 2 h incubation at RT, the AXL, TYRO3 and MER enzymatic reaction was stopped by transfer of 10 μl of reaction into 10 μl of detection mix (400 nM Streptavidin-XL665, 200-fold dilution TK Antibody-Cryptate and detection buffer, HTRF® KinEASE-TK kit, Cisbio) in a white 384-well microplate (Perkin Elmer, OptiPlate 384). After 1 h incubation at RT, the plate was put into a plate reader (Evision) to read at 665/620 nm (acceptor/donor) for HTRF. The value of the DMSO blank (MIN inhibition=100% activity) was used as a negative control. The positive control was established by adding 5 μl of enzyme and DMSO mixture into 10 μl of detection mix followed by addition of 5 μl of TK Substrate-biotin and ATP mixture (MAX inhibition=0% activity). To calculate the percent activity, Equation 1 was used. Ratio 665/620 is the value at a given compound concentration: […]
(In general: In TR-FRET formats the signal depends on donor and acceptor labels being close together.)
Broadly, the IC50 is the concentration that gives 50% inhibition. As to `C[C@@H]1CCCN1C1CCc2ccc(-c3cnc4[nH]nc(-c5ccc(C6(O)CCC6)c(Cl)c5)c4c3)cc2CC1` (stereo partly drawn) [Example 62, 1-[2-Chloro-4-(5-{7-[(2R)-2-methylpyrrolidin-1-yl]-6,7,8,9-tetrahydro-5H-benzo[7]annulen-2-yl}-1H-pyrazolo[3,4-b]pyridin-3-yl)phenyl]cyclobutan-1-ol], the concentration for half-maximal inhibition (IC50) lay within 100 to 1000 nM.

For the compound `C[C@@H]1CCCN1C1(C)CCc2ccc(-c3cnc4[nH]nc(-c5ccc(C(C)(C)O)nc5)c4c3)cc2CC1` (stereo partly drawn) [Example 22, 2-[5-(5-{7-Methyl-7-[(2R)-2-methylpyrrolidin-1-yl]-6,7,8,9-tetrahydro-5H-benzo[7]annulen-2-yl}-1H-pyrazolo[3,4-b]pyridin-3-yl)pyridin-2-yl]propan-2-ol], the IC50 was below 100 nM.

`C[C@@H]1CCCN1C1(C)CCc2ccc(-c3cnc4[nH]nc(-c5ccc(S(=O)(=O)C(F)(F)F)cc5)c4c3)cc2CC1` (stereo partly drawn) [Example 8, (2R)-2-Methyl-1-{7-methyl-2-[3-(4-trifluoromethanesulfonylphenyl)-1H-pyrazolo[3,4-b]pyridin-5-yl]-6,7,8,9-tetrahydro-5H-benzo[7]annulen-7-yl}pyrrolidine] displayed a 50% inhibitory concentration (IC50) above 1000 nM.

On to `C[C@@H]1CCCN1C1(C)CCc2ccc(-c3cnc4[nH]nc(-c5ccc(S(=O)(=O)C6CCC6)cc5)c4c3)cc2CC1` (stereo partly drawn) [Example 46, 3-(4-(Cyclobutylsulfonyl)phenyl)-5-(7-methyl-7-((R)-2-methylpyrrolidin-1-yl)-6,7,8,9-tetrahydro-5H-benzo[7]annulen-2-yl)-1H-pyrazolo[3,4-b]pyridine], for which the 50% inhibitory concentration (IC50) was 100 to 1000 nM.

Regarding `FC1CN(c2ccc(-c3c[nH]c4ncc(-c5ccc6c(c5)CC[C@@H](N5C7COCC5C7)CC6)cc34)cc2)C1` [Example 127, 6-[(7S)-2-{3-[4-(3-fluoroazetidin-1-yl)phenyl]-1H-pyrrolo[2,3-b]pyridin-5-yl}-6,7,8,9-tetrahydro-5H-benzo[7]annulen-7-yl]-3-oxa-6-azabicyclo[3.1.1]heptane], the 50% inhibitory concentration (IC50) fell in the range of 100 to 1000 nM.

Turning to `CC(C)(O)c1ccc(-c2n[nH]c3ncc(-c4ccc5c(c4)CCC(N4CCCC4)CC5)cc23)cc1Cl` (stereo not shown) [Example 11, 2-(2-Chloro-4-{5-[7-(pyrrolidin-1-yl)-6,7,8,9-tetrahydro-5H-benzo[7]annulen-2-yl]-1H-pyrazolo[3,4-b]pyridin-3-yl}phenyl)propan-2-ol], the IC50 was in the range of 100 to 1000 nM.

In the case of `C[C@H]1CCCN1C1CCc2ccc(-c3cnc4[nH]nc(-c5ccc(C(C)(C)O)c(Cl)c5)c4c3)cc2CC1` (stereo partly drawn) [Example 37, 2-(2-Chloro-4-(5-(7-((S)-2-methylpyrrolidin-1-yl)-6,7,8,9-tetrahydro-5H-benzo[7]annulen-2-yl)-1H-pyrazolo[3,4-b]pyridin-3-yl)phenyl)propan-2-ol], the IC50 was 100 to 1000 nM.

In the case of `CC(C)(O)c1ccc(-c2n[nH]c3ncc(-c4ccc5c(c4)CCN(C4CCCC4)CC5)cc23)c(F)c1` [Example 17, 2-{4-[5-(3-Cyclopentyl-2,3,4,5-tetrahydro-1H-3-benzazepin-7-yl)-1H-pyrazolo[3,4-b]pyridin-3-yl]-3-fluorophenyl}propan-2-ol], the half-maximal inhibitory concentration (IC50) was 100 to 1000 nM.

Compound `CC(C)(O)c1ccc(-c2n[nH]c3ncc(-c4ccc5c(c4)CCC(N4CCCC4)CC5)cc23)cn1` (stereo not shown) [Example 9, 2-(5-{5-[7-(Pyrrolidin-1-yl)-6,7,8,9-tetrahydro-5H-benzo[7]annulen-2-yl]-1H-pyrazolo[3,4-b]pyridin-3-yl}pyridin-2-yl)propan-2-ol] returned a 50% inhibitory concentration (IC50) below 100 nM.

Turning to `CC1(N2CCC[C@H]2CO)CCc2ccc(-c3cnc4[nH]nc(-c5ccc(S(=O)(=O)C6CC6)cc5)c4c3)cc2CC1` (stereo partly drawn) [Example 4, [(2S)-1-(2-{3-[4-(Cyclopropanesulfonyl)phenyl]-1H-pyrazolo[3,4-b]pyridin-5-yl}-7-methyl-6,7,8,9-tetrahydro-5H-benzo[7]annulen-7-yl)pyrrolidin-2-yl]methanol], the IC50 is 100 to 1000 nM.

In turn, `COC1CCN(S(=O)(=O)c2ccc(-c3n[nH]c4ncc(-c5ccc6c(c5)CCC(C)(N5CCC[C@H]5C)CC6)cc34)cc2)CC1` (stereo partly drawn) [Example 103, 3-(4-((4-Methoxypiperidin-1-yl)sulfonyl)phenyl)-5-(7-methyl-7-((R)-2-methylpyrrolidin-1-yl)-6,7,8,9-tetrahydro-5H-benzo[7]annulen-2-yl)-1H-pyrazolo[3,4-b]pyridine] yielded a half-maximal inhibitory concentration (IC50) of 100 to 1000 nM.

`C[C@H]1CCCN1C1(C)CCc2ccc(-c3cnc4[nH]nc(-c5ccc(C(C)(C)O)c(Cl)c5)c4c3)cc2CC1` (stereo partly drawn) [Example 58, 2-[2-Chloro-4-(5-{7-methyl-7-[(2S)-2-methylpyrrolidin-1-yl]-6,7,8,9-tetrahydro-5H-benzo[7]annulen-2-yl}-1H-pyrazolo[3,4-b]pyridin-3-yl)phenyl]propan-2-ol] had a half-maximal inhibitory concentration (IC50) of 100 to 1000 nM.

In turn, `C[C@@H]1CCCN1C1CCc2ccc(-c3cnc4[nH]nc(-c5ccc(C(C)(C)O)c(C(F)(F)F)c5)c4c3)cc2CC1` (stereo partly drawn) [Example 20, 2-[4-(5-{7-[(2R)-2-Methylpyrrolidin-1-yl]-6,7,8,9-tetrahydro-5H-benzo[7]annulen-2-yl}-1H-pyrazolo[3,4-b]pyridin-3-yl)-2-(trifluoromethyl)phenyl]propan-2-ol] displayed an IC50 below 100 nM.

`C[C@@H]1CCCN1C1(C)CCc2ccc(-c3cnc4[nH]nc(-c5ccc(C(N)=O)c(F)c5)c4c3)cc2CC1` (stereo partly drawn) [Example 52, 2-Fluoro-4-(5-(7-methyl-7-((R)-2-methylpyrrolidin-1-yl)-6,7,8,9-tetrahydro-5H-benzo[7]annulen-2-yl)-1H-pyrazolo[3,4-b]pyridin-3-yl)benzamide] registered an IC50 below 100 nM.

`O=C1CCCN1c1ccc(-c2n[nH]c3ncc(-c4ccc5c(c4)CC[C@@H](N4C6COCC4C6)CC5)cc23)cc1` [Example 122, 1-(4-{5-[(7S)-7-{3-oxa-6-azabicyclo[3.1.1]heptan-6-yl}-6,7,8,9-tetrahydro-5H-benzo[7]annulen-2-yl]-2H-pyrazolo[3,4-b]pyridin-3-yl}phenyl)pyrrolidin-2-one] came in with an IC50 above 1000 nM.

`COCCNCc1ccc(-c2n[nH]c3ncc(-c4ccc5c(c4)CCC(C)(N4CCC[C@H]4C)CC5)cc23)cc1` (stereo partly drawn) [Example 108, (2-Methoxyethyl)({[4-(5-{7-methyl-7-[(2R)-2-methylpyrrolidin-1-yl]-6,7,8,9-tetrahydro-5H-benzo[7]annulen-2-yl}-1H-pyrazolo[3,4-b]pyridin-3-yl)phenyl]methyl})amine]: the IC50 was in the range of 100 to 1000 nM.

Take `C[C@@H]1CCCN1[C@H]1CCc2cc(-c3cnc4[nH]nc(-c5ccc(S(=O)(=O)C6CC6)cc5)c4c3)cnc2CC1` [Example 102, (2R)-1-[(7S)-3-{3-[4-(Cyclopropanesulfonyl)phenyl]-1H-pyrazolo[3,4-b]pyridin-5-yl}-5H,6H,7H,8H,9H-cyclohepta[b]pyridin-7-yl]-2-methylpyrrolidine]: the half-maximal inhibitory concentration (IC50) is above 1000 nM.

As to `C[C@@H]1CCCN1C1(C)CCc2ccc(-c3cnc4[nH]nc(-c5ccc(S(N)(=O)=O)cc5)c4c3)cc2CC1` (stereo partly drawn) [Example 95, 4-(5-(7-Methyl-7-((R)-2-methylpyrrolidin-1-yl)-6,7,8,9-tetrahydro-5H-benzo[7]annulen-2-yl)-1H-pyrazolo[3,4-b]pyridin-3-yl)benzenesulfonamide], the IC50 is below 100 nM.

`C[C@@H]1CCCN1C1CCc2ccc(-c3cnc4[nH]nc(-c5ccc(S(=O)(=O)C6CC6)cc5)c4c3)cc2CC1` (stereo partly drawn) [Example 39, 3-(4-(Cyclopropylsulfonyl)phenyl)-5-(7-((R)-2-methylpyrrolidin-1-yl)-6,7,8,9-tetrahydro-5H-benzo[7]annulen-2-yl)-1H-pyrazolo[3,4-b]pyridine] returned an IC50 of 100 to 1000 nM.
